According to US9149038B2, “4-amino-6-(heterocyclic)picolinates and 6-amino-2-(heterocyclic)pyrimidine-4-carboxylates and their use as herbicides” (Dow AgroSciences LLC, priority 2013, dated 2015):
Where two headings read alike, the source gives them in different places.

Test system: Direct Seeded Rice and weed species
Test: Postemergence herbicidal activity in direct seeded rice, visual rating after 20-22 days and probit GR20/GR50/GR80/GR90 (Table 14)
Assay type: in vivo
Details: for pest or weed control at 17.5 g/ha / pest or weed control at 35 g/ha / pest or weed control at 70 g/ha: post-emergence, 504 h, postemergence; for pest or weed control at 17.5 g/ha: 17.5 g ai/ha; for pest or weed control at 35 g/ha: 35 g ai/ha; for pest or weed control at 70 g/ha: 70 g ai/ha
In short: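 Visual injury scores (0 = none, 100 = complete kill) taken 20-22 days after treatment and fitted by probit analysis over several doses to give GR20/GR50/GR80/GR90. Plants at 2nd–3rd true leaf in pH about 8.1 loam–sand mix received track-sprayer applications of 187 L/ha containing 1.25% (v/v) crop oil concentrate.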

[1] = BRAPP (broadleaf signalgrass, Brachiaria platyphylla), read-out: Visual Growth Reduction (%) 21 Days After Application BRAPP
[2] = CYPDI (small-flower flatsedge, Cyperus difformis), read-out: Visual Growth Reduction (%) 21 Days After Application CYPDI
[3] = CYPES (yellow nutsedge, Cyperus esculentus), read-out: Visual Growth Reduction (%) 21 Days After Application CYPES
[4] = CYPIR (rice flatsedge, Cyperus iria), read-out: Visual Growth Reduction (%) 21 Days After Application CYPIR
[5] = DIGSA (large crabgrass, Digitaria sanguinalis), read-out: Visual Growth Reduction (%) 21 Days After Application DIGSA
[6] = ECHCG (barnyardgrass, Echinochloa crus-galli), read-out: Visual Growth Reduction (%) 21 Days After Application ECHCG
[7] = ECHCO (junglerice, Echinochloa colonum), read-out: Visual Growth Reduction (%) 21 Days After Application ECHCO
[8] = LEFCH (Chinese sprangletop, Leptochloa chinensis), read-out: Visual Growth Reduction (%) 21 Days After Application LEFCH
[9] = ORYSJ (Oryza sativa, rice crop), read-out: Visual Growth Reduction (%) 21 Days After Application ORYSJ
[10] = ORYSK (Oryza sativa, rice crop), read-out: Visual Growth Reduction (%) 21 Days After Application ORYSK
[11] = SCPJU (Japanese bulrush, Schoenoplectus juncoides Roxb.), read-out: Visual Growth Reduction (%) 21 Days After Application SCPJU
[12] = SEBEX (hemp sesbania, Sesbania exaltata), read-out: Visual Growth Reduction (%) 21 Days After Application SEBEX

Nc1cc(-c2ccc3c(c2F)OC(F)(F)O3)nc(C(=O)O)c1Cl [Compound 41]
GR50 BRAPP (BRAPP (Brachiaria platyphylla), probit analysis, dose for 50 percent growth reduction): 0.3 g ai/ha | GR80 BRAPP (BRAPP (Brachiaria platyphylla), probit analysis, dose for 80 percent growth reduction): 2 g ai/ha | GR90 BRAPP (BRAPP (Brachiaria platyphylla), probit analysis, dose for 90 percent growth reduction): 6 g ai/ha | GR50 CYPDI (CYPDI (Cyperus difformis), probit analysis, dose for 50 percent growth reduction): 4 g ai/ha | GR80 CYPDI (CYPDI (Cyperus difformis), probit analysis, dose for 80 percent growth reduction): 6 g ai/ha | GR90 CYPDI (CYPDI (Cyperus difformis), probit analysis, dose for 90 percent growth reduction): 7 g ai/ha | GR50 CYPES (CYPES (Cyperus esculentus), probit analysis, dose for 50 percent growth reduction): 0.0001 g ai/ha | GR80 CYPES (CYPES (Cyperus esculentus), probit analysis, dose for 80 percent growth reduction): 0.0001 g ai/ha | GR90 CYPES (CYPES (Cyperus esculentus), probit analysis, dose for 90 percent growth reduction): 0.0001 g ai/ha | GR50 CYPIR (CYPIR (Cyperus iria), probit analysis, dose for 50 percent growth reduction): 0.0001 g ai/ha | GR80 CYPIR (CYPIR (Cyperus iria), probit analysis, dose for 80 percent growth reduction): 0.0001 g ai/ha | GR90 CYPIR (CYPIR (Cyperus iria), probit analysis, dose for 90 percent growth reduction): 0.0001 g ai/ha | GR50 DIGSA (DIGSA (Digitaria sanguinalis), probit analysis, dose for 50 percent growth reduction): 0.001 g ai/ha | GR80 DIGSA (DIGSA (Digitaria sanguinalis), probit analysis, dose for 80 percent growth reduction): 0.131 g ai/ha | GR90 DIGSA (DIGSA (Digitaria sanguinalis), probit analysis, dose for 90 percent growth reduction): 2 g ai/ha | GR50 ECHCG (ECHCG (Echinochloa crus-galli), probit analysis, dose for 50 percent growth reduction): 0.0018 g ai/ha | GR80 ECHCG (ECHCG (Echinochloa crus-galli), probit analysis, dose for 80 percent growth reduction): 0.0018 g ai/ha | GR90 ECHCG (ECHCG (Echinochloa crus-galli), probit analysis, dose for 90 percent growth reduction): 0.0018 g ai/ha | GR50 ECHCO (ECHCO (Echinochloa colonum), probit analysis, dose for 50 percent growth reduction): 0.0003 g ai/ha | GR80 ECHCO (ECHCO (Echinochloa colonum), probit analysis, dose for 80 percent growth reduction): 0.0415 g ai/ha | GR90 ECHCO (ECHCO (Echinochloa colonum), probit analysis, dose for 90 percent growth reduction): 1 g ai/ha | GR50 LEFCH (LEFCH (Leptochloa chinensis), probit analysis, dose for 50 percent growth reduction): 6 g ai/ha | GR80 LEFCH (LEFCH (Leptochloa chinensis), probit analysis, dose for 80 percent growth reduction): 13 g ai/ha | GR90 LEFCH (LEFCH (Leptochloa chinensis), probit analysis, dose for 90 percent growth reduction): 20 g ai/ha | GR20 ORYSJ (ORYSJ (Oryza sativa, rice crop), probit analysis, dose for 20 percent growth reduction): 1 g ai/ha | GR20 ORYSK (ORYSK (Oryza sativa, rice crop), probit analysis, dose for 20 percent growth reduction): 2 g ai/ha | GR50 SCPJU (SCPJU (Schoenoplectus juncoides Roxb.), probit analysis, dose for 50 percent growth reduction): 0.0001 g ai/ha | GR80 SCPJU (SCPJU (Schoenoplectus juncoides Roxb.), probit analysis, dose for 80 percent growth reduction): 0.0001 g ai/ha | GR90 SCPJU (SCPJU (Schoenoplectus juncoides Roxb.), probit analysis, dose for 90 percent growth reduction): 0.0001 g ai/ha | GR50 SEBEX (SEBEX (Sesbania exaltata), probit analysis, dose for 50 percent growth reduction): 4 g ai/ha | GR80 SEBEX (SEBEX (Sesbania exaltata), probit analysis, dose for 80 percent growth reduction): 9 g ai/ha | GR90 SEBEX (SEBEX (Sesbania exaltata), probit analysis, dose for 90 percent growth reduction): 13 g ai/ha | pest or weed control at 17.5 g/ha [1]: 95 to 100% | pest or weed control at 35 g/ha [1]: 95 to 100% | pest or weed control at 70 g/ha [1]: 95 to 100% | pest or weed control at 17.5 g/ha [2]: 95 to 100% | pest or weed control at 35 g/ha [2]: 95 to 100% | pest or weed control at 70 g/ha [2]: 95 to 100% | pest or weed control at 17.5 g/ha [3]: 95 to 100% | pest or weed control at 35 g/ha [3]: 95 to 100% | pest or weed control at 70 g/ha [3]: 95 to 100% | pest or weed control at 17.5 g/ha [4]: 95 to 100% | pest or weed control at 35 g/ha [4]: 95 to 100% | pest or weed control at 70 g/ha [4]: 95 to 100% | pest or weed control at 17.5 g/ha [5]: 95 to 100% | pest or weed control at 35 g/ha [5]: 95 to 100% | pest or weed control at 70 g/ha [5]: 95 to 100% | pest or weed control at 17.5 g/ha [6]: 85 to 94% | pest or weed control at 35 g/ha [6]: 95 to 100% | pest or weed control at 70 g/ha [6]: 95 to 100% | pest or weed control at 17.5 g/ha [7]: 95 to 100% | pest or weed control at 35 g/ha [7]: 95 to 100% | pest or weed control at 70 g/ha [7]: 95 to 100% | pest or weed control at 17.5 g/ha [8]: 85 to 94% | pest or weed control at 35 g/ha [8]: 95 to 100% | pest or weed control at 70 g/ha [8]: 95 to 100% | pest or weed control at 17.5 g/ha [9]: 85 to 94% | pest or weed control at 35 g/ha [9]: 95 to 100% | pest or weed control at 70 g/ha [9]: 95 to 100% | pest or weed control at 17.5 g/ha [10]: 60 to 74% | pest or weed control at 35 g/ha [10]: 75 to 84% | pest or weed control at 70 g/ha [10]: 85 to 94% | pest or weed control at 17.5 g/ha [11]: 95 to 100% | pest or weed control at 35 g/ha [11]: 95 to 100% | pest or weed control at 70 g/ha [11]: 95 to 100% | pest or weed control at 17.5 g/ha [12]: 95 to 100% | pest or weed control at 35 g/ha [12]: 95 to 100% | pest or weed control at 70 g/ha [12]: 95 to 100%
